{"source": "patent US10010502B2", "about": "“Device that delivers a sustained low-dose of a myopia-suppressing drug, while preserving pupillary function and accommodation” (AMORPHEX THERAPEUTICS LLC, priority 2015, dated 2018)", "origin": "cited, not measured here", "key": {"childhood myopia": {"system": "childhood myopia", "settings": "68 myopic children, oral dose of 400 mg"}, "myopia progression [1]": {"system": "myopia progression"}, "myopia progression [2]": {"system": "myopia progression", "remark": "listed apart in the source"}, "[3]": {"system": "muscarinic receptors of the pupil and ciliary body"}}, "note": "Entries after “also recorded” stand apart in the source; their conditions may differ."}
{"compound": "Cn1cnc2[nH]c(=O)[nH]c(=O)c21", "note": "[7-methylxanthine]", "values": [{"measurement": "eye elongation and myopia progression", "setting": "childhood myopia", "value": "reduce eye elongation and myopia progression"}, {"measurement": "safety / adverse effects", "setting": "childhood myopia", "value": "safe and without side effects; also recorded: no reported adverse effects"}]}
{"compound": "CN1CCc2cccc3c2[C@H]1Cc1ccc(O)c(O)c1-3", "note": "[apomorphine]", "values": [{"measurement": "myopia progression in animal models", "setting": "myopia progression [1]", "value": "retard myopia progression"}]}
{"compound": "CN1[C@@H]2CC[C@H]1C[C@@H](OC(=O)C(CO)c1ccccc1)C2", "note": "(some centres unmarked) [atropine]", "values": [{"measurement": "glare symptoms", "setting": "myopia progression [2]; 0.01% drops", "value": "some mild glare symptoms"}, {"measurement": "visual acuity, quality of life, reading speed", "setting": "myopia progression [2]; 0.01% drops", "value": "no decrease in visual acuity, quality of life or reading speed"}, {"measurement": "myopia progression", "setting": "myopia progression [2]; eye drop concentrations of 0.5% and 1.0%", "value": "≤ 0.2", "unit": "diopters/year"}, {"measurement": "increase in pupil size easily tolerated by children", "setting": "myopia progression [2]; lower dose atropine drops, normal light conditions", "value": 1, "unit": "mm"}, {"measurement": "effect on myopia progression", "setting": "myopia progression [2]; lowest dose eye drops studied, 0.01%", "value": "less-than-optimal but measureable effect"}, {"measurement": "duration of dilation after one drop", "setting": "myopia progression [2]; one eye drop", "value": "several days or even a week or more"}]}
{"compound": "N[C@@H](Cc1ccc(O)c(O)c1)C(=O)O", "note": "[levodopa]", "values": [{"measurement": "myopia progression in animal models", "setting": "myopia progression [1]", "value": "retard myopia progression"}]}
{"compound": "CN1CCN(CC(=O)N2c3ccccc3C(=O)Nc3cccnc32)CC1", "note": "[pirenzepine]", "values": [{"measurement": "activity at muscarinic receptors of the pupil and ciliary body relative to atropine", "setting": "[3]", "value": "less active at the muscarinic receptors of the pupil and ciliary body than atropine"}]}
